Patent US8367313B2, “Method of determining sperm capacitation” (Cornell University, priority 2003, dated 2013)
“Also recorded” adds a separate entry of the source. Read-outs that look alike come from different tables or passages of the source.

Legend:
[1] = system: GM1 localization in murine sperm; assay type: cell-based, mouse
murine sperm = experiment: Protein tyrosine phosphorylation / capacitation of sperm; assay type: cell-based, mouse
[2] = system: sterols in sperm plasma membrane; details: exposure of sperm to sterol acceptor; cited from earlier work
[3] = Fixative A: 0.004% paraformaldehyde, mouse sperm
[4] = Fixative B: 1.25% paraformaldehyde, 2.5% glutaraldehyde, 100 mM sodium cacodylate, 0.5 mM CaCl2
[5] = Fixative C: 4% paraformaldehyde, 0.1% glutaraldehyde, 1 mM CaCl2
[6] = incubation with the stimulus alone

O=C([O-])O.[Na+] [NaHCO3]
GM1 staining localization after exposure to stimulus [1]: staining was observed in the apical acrosome and post-acrosomal region | sperm with Pattern D (diffuse) [1]: 3.2% | ability to cause tyrosine phosphorylation or capacitation (murine sperm): not sufficient

(2-hydroxypropyl)-β-cyclodextrin [2-OHCD]
effect on filipin-sterol complexes (FSC) [2]: loss of most FSC from the plasma membrane overlying the acrosome | shift in CTb labeling pattern (FIG. 3/FIG. 4 patterns A, B, C) ([1]; 45 minute incubation, 10 mM HCO3− or 3 mM 2-OHCD, 0.004% paraformaldehyde): shifts to pattern “C.” | sperm with Pattern A (acrosomal) [1, 3]: Ns | sperm with Pattern AA/PA (apical acrosome and post-acrosomal) [1, 3]: 28.8% | sperm with Pattern D (diffuse) [1, 3]: 40.4% | sperm with Pattern PA (post-acrosomal) [1, 3]: 37.9% | sperm with Pattern D (diffuse) ([1]; Fixative A: 0.004% paraformaldehyde, mouse sperm, listed as cyclodextrin): approximately 40% | sperm with Pattern A (acrosomal) [1, 4]: 41.8% | sperm with Pattern AA/PA (apical acrosome and post-acrosomal) [1, 4]: 0% | sperm with Pattern D (diffuse) [1, 4]: 0% | sperm with Pattern PA (post-acrosomal) [1, 4]: 58.2% | sperm with Pattern A (acrosomal) [1, 5]: 80.5% | sperm with Pattern AA/PA (apical acrosome and post-acrosomal) [1, 5]: 0.2% | sperm with Pattern D (diffuse) [1, 5]: 0% | sperm with Pattern PA (post-acrosomal) [1, 5]: 19.4% | GM1 staining localization after exposure to stimulus ([1]; sperm fixed with 0.004% paraformaldehyde): a signal in the plasma membrane overlying the acrosome as well as in the post-acrosomal region | ability to cause tyrosine phosphorylation or capacitation (murine sperm; [6]): not sufficient

[Ca+2] [Ca^++]
ability to cause tyrosine phosphorylation or capacitation (murine sperm; [6]): not sufficient

CC(=O)[C@H]1CC[C@H]2[C@@H]3CCC4=CC(=O)CC[C@]4(C)[C@H]3CC[C@]12C [progesterone]
GM1 staining localization after induction of acrosomal exocytosis ([1]; after capacitating incubation (bicarbonate and 2-OHCD), then progesterone 10 μg/ml for 10 minutes): a signal over the apical acrosome alone; also recorded: concentrated in the region of the apical acrosome

bovine serum albumin [BSA]
effect on filipin-sterol complexes (FSC) [2]: loss of most FSC from the plasma membrane overlying the acrosome
